{"source": "patent US9220814B2", "about": "“Broad-spectrum antimicrobial compositions based on combinations of taurolidine and protamine and medical devices containing such compositions” (Ethicon, Inc., priority 2011, dated 2015)", "key": {"[1]": {"test_system": "Escherichia coli ATCC 25922", "test": "in vitro bacteria attachment assay on coated mesh discs in SST medium", "assay_type": "cell-based", "conditions": "treated mesh surface, serum containing media", "method": "Taurolidine was dissolved at 4% wt./vol. in a 70% acetone 30% water vol./vol. mixture. Protamine sulfate was dissolved at 10% wt./vol. in water under warming. 50 μl of the taurolidine (TU) solution and 20 μl of the protamine (PS) solution were applied to each mesh disk using a pipette and allowed to dry at 50° C. until the majority of the liquid was gone and then stored under vacuum. First the taurolidine solution was applied, and then immediately thereafter the protamine sulfate solution was applied. The in vitro bacteria attachment assay was developed for its utility of indicating biofilm prevention potential of prototype mesh. Since bacterial attachment to a surface is the first step of biofilm formation, a surface treatment that inhibits bacterial attachment would reduce the chance of subsequent biofilm formation. The assay was conducted in SST (Serum Saline TSB) medium to mimic in vivo and clinical conditions. The formulation of SST is Tryptic Soy Broth (TSB):serum:saline in the ratio of 1:2:7. Each test article was incubated in SST inoculated with Staphylococcus aureus ACTT 6538 or Escherichia coli ATCC 25922 at about 6 Log CFU/ml. […] Viable bacteria populations were measured by plate count on TSA (Tryptic Soy agar) medium contain neutralizing agents. […]"}, "[2]": {"test_system": "S. aureus ACTT 6538", "test": "bactericidal two-dimensional concentration matrix of TU and PS in SST medium, plate count", "assay_type": "cell-based, Staphylococcus aureus", "conditions": "TU alone at 100 ppm, 37° C. 24 hours", "method": "Concentration gradients of TU and PS were diluted in an SST medium and made into a two-dimensional matrix. Bacteria of interest were inoculated to the matrix at about 10e6 CFU/ml. S. aureus ACTT 6538 or E. coli ATCC 25922 were used for this Example 2. After incubation at 37° C. for 24 hours, viable bacteria populations were measured by plate count. Log reduction (LR) was used as the end point for efficacy and was defined as: Log CFU/ml of untreated control−Log CFU/ml of treated. Synergistic index (SI) was defined as LR of a given combination−sum of LR of single component at the same concentration as in the combination. SI=0 indicated additive effect, SI=1, indicated 90% more bacterial cedality, SI=2 indicated 99% more bacterial cedality, SI=3, indicated 99.9% more bacterial cedality, etc., by combination than its stand alone compositions at the same usage, thus synergy."}, "[3]": {"test_system": "Staphylococcus aureus ACTT 6538", "test": "in vitro bacteria attachment assay on coated mesh discs in SST medium", "assay_type": "cell-based", "conditions": "for Log reduction: 4 hours SST 37° C.", "method": "Taurolidine was dissolved at 4% wt./vol. in a 70% acetone 30% water vol./vol. mixture. Protamine sulfate was dissolved at 10% wt./vol. in water under warming. 50 μl of the taurolidine (TU) solution and 20 μl of the protamine (PS) solution were applied to each mesh disk using a pipette and allowed to dry at 50° C. until the majority of the liquid was gone and then stored under vacuum. First the taurolidine solution was applied, and then immediately thereafter the protamine sulfate solution was applied. The in vitro bacteria attachment assay was developed for its utility of indicating biofilm prevention potential of prototype mesh. Since bacterial attachment to a surface is the first step of biofilm formation, a surface treatment that inhibits bacterial attachment would reduce the chance of subsequent biofilm formation. The assay was conducted in SST (Serum Saline TSB) medium to mimic in vivo and clinical conditions. The formulation of SST is Tryptic Soy Broth (TSB):serum:saline in the ratio of 1:2:7. Each test article was incubated in SST inoculated with Staphylococcus aureus ACTT 6538 or Escherichia coli ATCC 25922 at about 6 Log CFU/ml. After incubation with rotation of 60 rpm for 4 hours at 37° C., the mesh discs were washed in saline 3 times to remove unattached bacteria. Bacteria attached to the mesh were collected by sonication in saline with neutralizing agent. Viable bacteria populations were measured by plate count on TSA (Tryptic Soy agar) medium contain neutralizing agents. The use of neutralizing agents in bacteria suspension and plate count medium was to eliminate any carry over antimicrobial effect from the coating. The plates were incubated at 37° C. for 24 hours. The number of attached viable bacteria was reported as CFU/disc. In accordance with Example 1, surgical mesh discs coated with different stand alone and combinations of taurolidine+protamine sulfate were prepared. Protocols of mesh coating and in vitro attachment assay as in Example 1 were used for this Example 3."}, "[4]": {"conditions": "cited from earlier work"}, "[5]": {"test_system": "Staphylococcus aureus ACTT 6538", "test": "in vitro MBC (minimum bactericidal concentration) study of PS:TU ratios in SST medium", "assay_type": "cell-based", "method": "The range of the ratios of the components of the synergistic antimicrobial compositions of the present invention was obtained by an in vitro MBC (minimum bactericidal concentration) study. The study was conducted in SST medium inoculated with about 10^6 CFU/ml Staphylococcus aureus ACTT 6538. In vitro efficacy was evaluated for different ratios of PS and TU combinations along with the stand alone (i.e., individual) compositions at the same concentrations as in the combination composition. After incubation at 37° C. for 24 hours, viable bacteria populations were measured by plate count. Log reduction (LR) was used as the end point for efficacy and was defined as Log CFU/ml of untreated control−Log CFU/ml of treated. The synergistic index (SI) was defined as the LR of a given combination−sum of LR of single component at the same concentration as in the combination. An SI=0 indicated additive effect, SI=1, indicated 90% more bacterial cedality, SI=2 indicated 99% more bacterial cedality, SI=3, indicated 99.9% more bacterial cedality, etc., by a combination than its stand alone components at the same usage, thus synergy."}}}
{"compound": "O=S1(=O)CCN(CN2CCS(=O)(=O)NC2)CN1", "note": "[TU, bis(1,1-dioxoperhydro-1,2,4-thiadiazinyl-4)-methane]", "values": [{"measurement": "inhibition of attachment by E. coli (in words)", "setting": "[1]", "value": "less inhibition than the combination"}, {"measurement": "Log reduction (LR)", "setting": "[2]", "value": 0}, {"measurement": "Log reduction", "setting": "[3]; TU 500 μg/disc alone", "value": 1}, {"measurement": "Log reduction", "setting": "[3]; TU 1000 μg/disc alone", "value": 0.8}, {"measurement": "Log reduction", "setting": "[3]; TU 2000 μg/disc alone", "value": 2}, {"measurement": "inhibition of attachment by S. aureus (in words)", "setting": "[3]; treated mesh surface, serum containing media", "value": "less inhibition than the combination"}, {"measurement": "safe and well tolerated cumulative dose", "setting": "[4]; cumulative doses", "value": "exceeding 300 g"}, {"measurement": "safe and well tolerated systemic dose", "setting": "[4]; systemic doses", "value": "exceeding 40 g/day"}, {"measurement": "LR-TU", "setting": "[5]; TU alone at same concentration as in PS:TU 1:1", "value": 0}, {"measurement": "LR-TU", "setting": "[5]; TU alone at same concentration as in PS:TU 1:10", "value": 0}, {"measurement": "LR-TU", "setting": "[5]; TU alone at same concentration as in PS:TU 1:50", "value": 0}, {"measurement": "LR-TU", "setting": "[5]; TU alone at same concentration as in PS:TU 1:100", "value": 0}, {"measurement": "LR-TU", "setting": "[5]; TU alone at same concentration as in PS:TU 1:200", "value": 0}, {"measurement": "LR-TU", "setting": "[5]; TU alone at same concentration as in PS:TU 10:1", "value": 0}, {"measurement": "LR-TU", "setting": "[5]; TU alone at same concentration as in PS:TU 50:1", "value": 0}]}
